Source: patent US20070049588A1, “ATM INHIBITOR” (priority 2005, published 2007)
Read-outs that look alike come from different tables or passages of the source.

What was measured:
[1] = Clonogenic survival assays with chemotherapeutics; type: cell-based; details: in vitro clonogenic survival assays
[2] = Maximum single tolerable intravenous dose in rats; details: both sexes, rat, in vivo, highest dose without clinical signs in 4 animals, read-out: Rat MTD (i.v.)
Method: (§1) The maximum single tolerable intravenous dose which could be administered to rats and mice was determined. Escalating doses of each compound were given to discrete, naive pairs of animals (1 male and 1 female) until a dose that elicited clinical signs, was reached. Then for each compound, two further animals were then treated with the highest dose that had not produced any clinical signs. […]

[3] = Oral bioavailability in mice; type: in vivo; details: mouse, plasma, 10 mg/kg oral vs intravenous, AUC ratio
Method: In order to assess the oral bioavailability of compounds (Ia)-(IV), the compounds were dissolved to 5 mg/ml in an aqueous formulation which was then dosed orally and intravenously at 10 mg/kg to discrete groups of mice. For the intravenously dosed animals, blood samples were taken (three mice per time point) at 3, 5, 15, 30, 60, 120, 240 and 360 minutes post-dose. For the orally dosed animals, blood samples were taken (three mice per time point) at 5, 15, 30, 60, 120, 240 and 360 minutes post-dose. The plasma concentration of each compound at all time points, for both dose routes, was determined by HPLC-MS/MS analysis. The details of the HPLC-MS/MS method are as follows.
Sample was extracted for analysis by homogenisation of tissue, if required, vortex mixing and then centrifugation to produce a compound-containing supernatant that can be assayed by HPLC-MS/MS. Quantitation was achieved by comparison to a serial dilution of a known amount of parent compound. The chromatographic and MS conditions used are given below.
MS conditions were determined by infusing compound dissolved in 50:50 acetonitrile:formic acid (0.01%).
Total exposure as indicated by area under the curve (AUC) was calculated. By definition, intravenous delivery results in 100% bioavailability and the comparative bioavailability obtained through oral delivery is calculated by: [formula]

HIV = assay: HIV-based LUCIA assay, repression of retroviral infection; type: cell-based; details: Human immunodeficiency virus 1
Method: The ability of compound (Ia) to repress retroviral infections was assessed using an HIV-based LUCIA assay. The LUCIA assay was carried out as described in WO 03/070726 (see pages 125-126 therein), which is incorporated herein by reference.

[4] = Tissue pharmacokinetics, plasma and tumour concentrations; type: in vivo; details: mouse, ip, mice, 50 mg/kg i.p., mean; for concentration at 1 h: 1 hr post-dose; for concentration at 4 h: 4 hr post-dose
Method: In order to assess tissue pharmacokinetics, a single intraperitoneal (i.p.) dose of 50 mg/kg of each compound was administered to discrete groups of mice. Blood and tumour samples were taken (three mice per time point) at 1 and 4 hours post-dose. The concentration of each compound in both matrices at both time points was determined by HPLC-MS/MS analysis using the method described above for Example 6. The mean concentrations found are presented below.

[5] = Maximum single tolerable intravenous dose in mice; details: both sexes, mouse, in vivo, highest dose without clinical signs in 4 animals, read-out: Mouse MTD (i.v.)
Method: as §1

[6] = plasma, read-out: Plasma concentration
[7] = tumour, read-out: Tumour concentration

Compound | Potentiation of cytotoxic effects of etoposide, camptothecin and doxorubicin [1] | MTD [2] | bioavailability [3] | IC50 (HIV) | concentration at 1 h [4, 6] | concentration at 4 h [4, 6] | concentration at 1 h [4, 7] | concentration at 4 h [4, 7] | MTD [5]
C[C@@H]1CN(CC(=O)Nc2ccc3c(c2)Cc2cccc(-c4cc(=O)cc(N5CCOCC5)o4)c2S3)C[C@H](C)O1 [Compound (Ia), 2-((2R,6S)-2,6-Dimethyl-morpholin-4-yl)-N-[5-(6-morpholin-4-yl-4-oxo-4H-pyran-2-yl)-9H-thioxanthen-2-yl]-acetamide] | potentiate the cytotoxic effects | > 100 mg/kg | 37% | 1300 nM | 31800 ng/mL | 5960 ng/mL | 19700 ng/g | 4140 ng/g | 75 mg/kg
CN1CCN(CCC(=O)Nc2ccc3c(c2)Cc2cccc(-c4cc(=O)cc(N5CCOCC5)o4)c2S3)CC1 [Compound (II)] |  | 40 mg/kg | 0% |  | 3030 ng/mL | 137 ng/mL | 2810 ng/g | 1060 ng/g | < 40 mg/kg
CN1CCN(CCC(=O)Nc2ccc3c(c2)Sc2cccc(-c4cc(=O)cc(N5CCOCC5)o4)c2S3)CC1 [Compound (III)] |  | 75 mg/kg | 0% |  | 2030 ng/mL | 626 ng/mL | 1730 ng/g | 2190 ng/g | < 40 mg/kg
CC(C)N1CCN(CCC(=O)Nc2ccc3c(c2)Sc2cccc(-c4cc(=O)cc(N5CCOCC5)o4)c2S3)CC1 [Compound (IV)] |  |  | 0% |  | 1920 ng/mL | 383 ng/mL | 899 ng/g | 1090 ng/g | < 40 mg/kg
